Assay results taken from ChEMBL document CHEMBL3132769, “Fragment growing to retain or alter the selectivity of anchored kinase hinge-binding fragments” (Medchemcomm, 2014).

How the values were obtained:
[1] = biological target: Serine/threonine-protein kinase MARK1 (Homo sapiens) (UniProt Q9P0L2); test: Inhibition of human full length MARK1 expressed in baculovirus assessed as substrate phosphorylation using fluorescence-labelled peptides as substrate at 8 uM after 90 mins by microfluidic peptide phosphorylation assay
[2] = biological target: T1, Testis-specific serine/threonine-protein kinase 1 (Homo sapiens) (UniProt Q9BXA7); test: Inhibition of human full length TSSK1 expressed in baculovirus assessed as substrate phosphorylation using fluorescence-labelled peptides as substrate at 8 uM after 90 mins by microfluidic peptide phosphorylation assay
T1 sequence (whole entry): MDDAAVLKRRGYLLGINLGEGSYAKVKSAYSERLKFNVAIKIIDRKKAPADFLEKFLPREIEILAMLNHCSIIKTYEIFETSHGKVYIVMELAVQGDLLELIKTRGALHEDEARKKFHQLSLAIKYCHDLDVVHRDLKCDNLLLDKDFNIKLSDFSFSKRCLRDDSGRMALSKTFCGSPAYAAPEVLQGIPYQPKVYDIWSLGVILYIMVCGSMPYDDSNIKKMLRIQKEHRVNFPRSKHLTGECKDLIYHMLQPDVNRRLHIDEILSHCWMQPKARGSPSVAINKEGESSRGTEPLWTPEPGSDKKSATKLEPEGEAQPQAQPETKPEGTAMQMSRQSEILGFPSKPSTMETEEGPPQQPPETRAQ

[3] = biological target: T2, Serine/threonine-protein kinase BRSK2 (Homo sapiens) (UniProt Q8IWQ3); test: Inhibition of human truncated BRSK2 expressed in baculovirus assessed as substrate phosphorylation using fluorescence-labelled peptides as substrate at 2 uM after 90 mins by microfluidic peptide phosphorylation assay
T2 sequence (whole entry): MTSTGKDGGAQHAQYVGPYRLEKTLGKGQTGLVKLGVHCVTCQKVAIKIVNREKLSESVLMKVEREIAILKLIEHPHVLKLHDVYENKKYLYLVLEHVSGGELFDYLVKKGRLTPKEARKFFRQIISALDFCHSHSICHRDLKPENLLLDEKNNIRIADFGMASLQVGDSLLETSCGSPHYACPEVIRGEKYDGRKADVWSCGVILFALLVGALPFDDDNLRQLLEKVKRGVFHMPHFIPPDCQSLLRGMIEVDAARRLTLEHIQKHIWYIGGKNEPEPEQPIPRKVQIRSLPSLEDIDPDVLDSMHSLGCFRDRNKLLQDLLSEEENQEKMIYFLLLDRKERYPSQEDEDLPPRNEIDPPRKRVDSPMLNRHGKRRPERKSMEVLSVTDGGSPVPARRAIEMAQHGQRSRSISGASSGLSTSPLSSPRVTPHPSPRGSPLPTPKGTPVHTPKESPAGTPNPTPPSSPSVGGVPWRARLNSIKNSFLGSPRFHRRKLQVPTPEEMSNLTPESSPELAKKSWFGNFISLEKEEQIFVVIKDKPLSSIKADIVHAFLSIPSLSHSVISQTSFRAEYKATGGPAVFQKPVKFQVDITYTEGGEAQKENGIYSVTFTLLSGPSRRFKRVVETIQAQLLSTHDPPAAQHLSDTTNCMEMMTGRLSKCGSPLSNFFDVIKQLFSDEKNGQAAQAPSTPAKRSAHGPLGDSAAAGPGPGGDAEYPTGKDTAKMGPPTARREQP

[4] = system: Tyrosine-protein kinase ABL1 (Homo sapiens), P00519 [H396P]; test: Inhibition of human truncated ABL H396P mutant expressed in baculovirus assessed as substrate phosphorylation using fluorescence-labelled peptides as substrate at 1000 uM after 90 mins by microfluidic peptide phosphorylation assay
[5] = biological target: Protein kinase C delta type (Homo sapiens) (UniProt Q05655); test: Inhibition of human truncated PKC delta expressed in baculovirus assessed as substrate phosphorylation using fluorescence-labelled peptides as substrate at 0.06 uM after 90 mins by microfluidic peptide phosphorylation assay
[6] = biological target: Tyrosine-protein kinase Fyn (Homo sapiens) (UniProt P06241); test: Inhibition of human full length FYN expressed in baculovirus assessed as substrate phosphorylation using fluorescence-labelled peptides as substrate at 420 uM after 90 mins by microfluidic peptide phosphorylation assay
[7] = biological target: Fibroblast growth factor receptor 2 (Homo sapiens) (UniProt P21802); test: Inhibition of human FGFR2 catalytic domain expressed in baculovirus assessed as substrate phosphorylation using fluorescence-labelled peptides as substrate at 9 uM after 90 mins by microfluidic peptide phosphorylation assay
[8] = biological target: T3, Calcium/calmodulin-dependent protein kinase type IV (Homo sapiens) (UniProt Q16566); test: Inhibition of human full length CAMK4 expressed in baculovirus assessed as substrate phosphorylation using fluorescence-labelled peptides as substrate at 9 uM after 90 mins by microfluidic peptide phosphorylation assay
T3 sequence (whole entry): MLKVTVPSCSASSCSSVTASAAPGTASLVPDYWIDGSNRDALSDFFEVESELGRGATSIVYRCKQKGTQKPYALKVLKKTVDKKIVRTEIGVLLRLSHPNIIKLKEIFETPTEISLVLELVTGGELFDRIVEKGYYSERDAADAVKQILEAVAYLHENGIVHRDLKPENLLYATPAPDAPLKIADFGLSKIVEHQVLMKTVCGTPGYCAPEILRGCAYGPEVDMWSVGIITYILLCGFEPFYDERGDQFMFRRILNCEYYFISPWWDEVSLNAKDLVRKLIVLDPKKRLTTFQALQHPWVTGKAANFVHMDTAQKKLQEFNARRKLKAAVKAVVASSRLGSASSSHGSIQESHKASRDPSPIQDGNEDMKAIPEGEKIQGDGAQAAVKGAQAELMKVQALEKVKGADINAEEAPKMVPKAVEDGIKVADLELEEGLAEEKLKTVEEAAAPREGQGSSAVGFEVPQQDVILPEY

[9] = biological target: T4, Serine/threonine-protein kinase 3 (Homo sapiens) (UniProt Q13188); test: Inhibition of human full length MST2 expressed in baculovirus assessed as substrate phosphorylation using fluorescence-labelled peptides as substrate at 70 uM after 90 mins by microfluidic peptide phosphorylation assay
T4 sequence (whole entry): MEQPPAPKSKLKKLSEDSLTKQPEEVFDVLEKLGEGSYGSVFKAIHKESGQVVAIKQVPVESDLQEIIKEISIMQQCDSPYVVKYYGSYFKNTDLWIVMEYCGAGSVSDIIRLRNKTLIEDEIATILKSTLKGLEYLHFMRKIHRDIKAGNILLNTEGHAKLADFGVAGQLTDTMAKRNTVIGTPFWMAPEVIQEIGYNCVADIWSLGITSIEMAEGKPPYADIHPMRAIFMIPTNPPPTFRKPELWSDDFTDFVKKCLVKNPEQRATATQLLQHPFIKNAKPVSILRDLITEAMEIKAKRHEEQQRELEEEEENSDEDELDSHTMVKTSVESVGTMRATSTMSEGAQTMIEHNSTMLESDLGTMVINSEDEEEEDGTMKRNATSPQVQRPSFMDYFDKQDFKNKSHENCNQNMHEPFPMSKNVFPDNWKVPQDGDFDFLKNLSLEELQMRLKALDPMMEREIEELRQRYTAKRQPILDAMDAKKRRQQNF

Chain of Fibroblast growth factor receptor 2 (Homo sapiens) (P21802 22-821 limits assumed): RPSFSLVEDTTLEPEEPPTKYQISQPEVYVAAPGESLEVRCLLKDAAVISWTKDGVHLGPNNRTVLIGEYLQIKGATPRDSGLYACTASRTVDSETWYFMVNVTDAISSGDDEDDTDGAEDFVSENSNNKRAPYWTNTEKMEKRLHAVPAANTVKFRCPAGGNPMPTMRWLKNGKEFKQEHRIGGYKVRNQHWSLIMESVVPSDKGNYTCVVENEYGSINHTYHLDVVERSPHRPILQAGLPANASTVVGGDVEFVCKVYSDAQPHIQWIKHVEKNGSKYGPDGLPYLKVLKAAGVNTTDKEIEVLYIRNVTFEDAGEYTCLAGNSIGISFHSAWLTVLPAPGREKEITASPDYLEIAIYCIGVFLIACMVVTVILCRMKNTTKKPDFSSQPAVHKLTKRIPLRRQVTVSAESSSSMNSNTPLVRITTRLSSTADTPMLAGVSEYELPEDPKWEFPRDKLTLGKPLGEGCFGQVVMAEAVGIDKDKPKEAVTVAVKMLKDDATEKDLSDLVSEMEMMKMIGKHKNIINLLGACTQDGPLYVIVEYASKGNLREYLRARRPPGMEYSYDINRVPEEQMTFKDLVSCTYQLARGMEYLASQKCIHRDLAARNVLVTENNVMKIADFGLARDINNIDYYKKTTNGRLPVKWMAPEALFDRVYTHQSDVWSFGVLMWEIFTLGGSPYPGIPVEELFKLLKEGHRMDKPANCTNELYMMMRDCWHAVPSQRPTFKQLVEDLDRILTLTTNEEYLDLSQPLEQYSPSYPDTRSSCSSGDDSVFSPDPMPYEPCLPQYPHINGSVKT
Chain of Serine/threonine-protein kinase MARK1 (Homo sapiens) (Q9P0L2 whole entry, looked up): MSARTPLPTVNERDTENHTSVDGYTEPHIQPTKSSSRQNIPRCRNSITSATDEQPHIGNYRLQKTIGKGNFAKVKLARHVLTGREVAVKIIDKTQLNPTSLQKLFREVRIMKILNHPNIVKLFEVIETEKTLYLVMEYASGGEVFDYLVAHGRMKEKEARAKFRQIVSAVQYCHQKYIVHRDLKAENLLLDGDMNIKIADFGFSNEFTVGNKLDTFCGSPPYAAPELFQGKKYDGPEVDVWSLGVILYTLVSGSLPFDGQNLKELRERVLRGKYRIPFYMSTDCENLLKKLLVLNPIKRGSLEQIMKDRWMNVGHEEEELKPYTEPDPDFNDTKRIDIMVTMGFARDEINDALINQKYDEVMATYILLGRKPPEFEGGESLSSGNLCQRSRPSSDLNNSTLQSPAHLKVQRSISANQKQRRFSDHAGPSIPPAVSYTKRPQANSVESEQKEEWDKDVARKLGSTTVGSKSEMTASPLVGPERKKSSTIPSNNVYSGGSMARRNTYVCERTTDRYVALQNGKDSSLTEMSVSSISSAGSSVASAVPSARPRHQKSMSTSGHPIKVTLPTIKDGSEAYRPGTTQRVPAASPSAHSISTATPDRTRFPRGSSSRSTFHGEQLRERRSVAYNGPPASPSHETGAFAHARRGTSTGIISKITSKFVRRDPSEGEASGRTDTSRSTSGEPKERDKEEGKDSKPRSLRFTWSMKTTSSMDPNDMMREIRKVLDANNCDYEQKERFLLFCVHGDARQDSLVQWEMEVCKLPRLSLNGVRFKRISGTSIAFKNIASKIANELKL
Chain of Protein kinase C delta type (Homo sapiens) (Q05655 whole entry, looked up, the tested form may be a part): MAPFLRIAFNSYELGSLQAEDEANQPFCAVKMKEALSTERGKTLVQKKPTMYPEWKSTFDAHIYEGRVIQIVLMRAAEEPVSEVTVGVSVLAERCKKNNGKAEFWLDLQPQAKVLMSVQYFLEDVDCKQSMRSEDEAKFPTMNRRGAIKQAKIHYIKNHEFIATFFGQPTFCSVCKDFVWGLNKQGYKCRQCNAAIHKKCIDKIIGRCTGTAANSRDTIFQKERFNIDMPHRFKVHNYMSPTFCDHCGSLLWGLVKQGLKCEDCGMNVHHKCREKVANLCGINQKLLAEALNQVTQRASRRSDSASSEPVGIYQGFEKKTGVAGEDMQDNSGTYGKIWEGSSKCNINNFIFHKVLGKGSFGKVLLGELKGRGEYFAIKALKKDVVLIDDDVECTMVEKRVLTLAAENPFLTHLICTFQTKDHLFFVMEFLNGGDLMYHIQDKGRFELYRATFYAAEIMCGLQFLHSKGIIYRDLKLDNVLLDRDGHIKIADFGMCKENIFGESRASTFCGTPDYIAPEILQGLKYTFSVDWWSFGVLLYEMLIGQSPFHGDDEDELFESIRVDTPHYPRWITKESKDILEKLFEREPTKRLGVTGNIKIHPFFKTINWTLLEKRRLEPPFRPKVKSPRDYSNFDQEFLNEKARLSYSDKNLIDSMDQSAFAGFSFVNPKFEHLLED
Chain of Tyrosine-protein kinase Fyn (Homo sapiens) (P06241 2-537 limits assumed): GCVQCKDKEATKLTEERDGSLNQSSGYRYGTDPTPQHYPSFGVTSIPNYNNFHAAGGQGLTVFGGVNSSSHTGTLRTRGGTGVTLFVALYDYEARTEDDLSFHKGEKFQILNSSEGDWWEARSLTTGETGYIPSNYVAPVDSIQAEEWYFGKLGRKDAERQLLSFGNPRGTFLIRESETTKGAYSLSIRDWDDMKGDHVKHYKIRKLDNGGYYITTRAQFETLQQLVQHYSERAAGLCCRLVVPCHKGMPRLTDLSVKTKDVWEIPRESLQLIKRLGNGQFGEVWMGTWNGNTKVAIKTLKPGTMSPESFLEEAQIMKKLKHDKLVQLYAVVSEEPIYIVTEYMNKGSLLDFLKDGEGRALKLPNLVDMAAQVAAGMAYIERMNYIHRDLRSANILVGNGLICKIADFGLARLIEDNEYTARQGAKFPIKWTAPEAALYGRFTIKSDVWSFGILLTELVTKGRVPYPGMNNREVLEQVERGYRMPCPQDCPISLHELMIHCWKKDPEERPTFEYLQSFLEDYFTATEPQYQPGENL

Compound: NCC1CCN(c2ncnc3[nH]ccc23)CC1
- inhibition [1]: 74%
- inhibition [2]: 25.5%

Compound: NC1CCN(c2ncnc3[nH]ccc23)CC1
- inhibition [3]: 2.5%

Compound: c1cnc2[nH]ccc2c1
- inhibition [4]: 44.5%

Compound: NC1(Cc2ccc(Cl)cc2)CCN(c2ncnc3[nH]ccc23)CC1
- inhibition [5]: 2%

Compound: c1nc(N2CCOCC2)c2nc[nH]c2n1
- inhibition [6]: 64.5%

Compound: NCC1CN(c2ncnc3[nH]c4cnccc4c23)CCO1 (centres undefined)
- inhibition [7]: 30%
- inhibition [8]: 31.5%

Compound: CNCc1ccc(-c2ncnc3[nH]cnc23)cc1
- inhibition [9]: 88%
